The structures appear in SMILES notation.

In turn, `CN(Cc1cc2c(=O)c(C(=O)NCc3ccc(Cl)cc3)cn(C)c2o1)CC(O)c1cnccn1` (single isomer, unassigned; (+)) yielded a melting point of 148 to 151 °C.
The result for `CN(C)C=NCc1ccc2c(c1)Nc1nccnc1S2` reads 218 to 219 °C; that for `COc1ccc(CC(=O)Cc2c(OC)cc(OC)c(CC=C(C)C)c2OCC(=O)O)cc1`, 102 °C; that for `CN1CCc2cc(OC[C@H]3CO[C@](Cn4ccnc4)(c4ccc(Cl)cc4Cl)O3)ccc2C12CCSCC2` (racemic), 138 to 139 °C.
The result for `N#Cc1cc(Br)ccc1NC(=O)c1cccc(S(=O)(=O)N2CCOCC2)c1` reads 185 to 187 °C.
The result for `COc1cc(CC(=O)NCCOCc2ccc(C)c(C)c2)ccc1O` reads 82 to 83 °C; that for `O/C(=C\c1nc2ccccc2c2nccn12)c1cccs1`, 128 °C.
Regarding `N#Cc1onc(-c2ccccc2)c1-c1ccc(S(N)(=O)=O)cc1`, the melting point lay in the range of 218 to 219 °C.
The result for `CCN(CC)S(=O)(=O)c1ccc(C=CC(C)(O)C(F)(F)F)cc1` (configuration not stated) reads 112 to 117 °C.
The result for `Cc1cc(C)c(Nc2nc(C)ncc2S(=O)(=O)c2ccc(C#N)cc2)c(C)c1` reads 258 to 260 °C; that for `O=C(N[C@H]1CCCNC1=O)c1ccccc1F`, 166 to 168 °C; that for `CCCc1nc(C(C)(O)CC)c(C#N)n1C(c1ccccc1)(c1ccccc1)c1ccccc1` (configuration not stated), greater than 120 °C.
The result for `COC(=O)CCCS(=O)(=O)c1c(Cc2cccc3ccccc23)sc2c1c(=O)n(C)c(=O)n2CC(C)C` reads 122 to 124 °C; that for `CCN(CC)CCSC1=C(C#N)C(c2ccc(OC)cc2)(c2cccnc2)C(=O)N1` (configuration not stated), 133 °C.
`CC(C)(C)OC(=O)N[C@@H]1CN(C2CCCCC2)c2ccccc2NC1=O` displayed a melting point of 156 to 159 °C.
In the case of `OC1COC(c2ccccc2)OC1` (configuration not stated), the melting point lay within 83 to 84 °C.
The result for `O=C1c2cc(Cl)ccc2C(O)N1c1ccc2ccc(Cl)nc2n1` (configuration not stated) reads 295 to 297 °C.
The result for `CCOC(=O)C1(C(C)C)OC2(O)C3CCCN3C(=O)C(C(C)C)N2C1=O` (configuration not stated) reads 103 to 104 °C; that for `O=C(c1ccc(-c2cc(Cl)ccc2OCc2ccccc2)cc1C(F)(F)F)N1CCCC1`, 143 to 144 °C.
The same measure for `CC(=O)C=Cc1ccc2sccc2c1`: 75 °C.
As to `CC12CCC(=O)N1CC(=O)N2` (configuration not stated), the melting point fell in the range of 187 to 189 °C.
The result for `O=C(O)C1=Cc2cc(C(=O)c3ccc(O)cc3)ccc2OC1C(F)(F)F` (configuration not stated) reads 234 to 240 °C.
The same measure for `CC1CCc2nc3c(N)nc4ccccc4c3n2N1` (configuration not stated): 241 to 243 °C.
In turn, `O=C1CCCN1C(=O)NCCn1cccn1` showed a melting point of 62.5 to 63.5 °C.
The same measure for `CCOC(=O)COC(=O)COc1ccc(OCC(=O)OCC)cc1NC(=O)c1ccc(OCCCCc2ccccc2)cc1`: 64 °C.
The same measure for `COc1ccccc1C1=NNNN1C(c1ccccc1)(c1ccccc1)c1ccccc1`: 165 to 170 °C; for `O=P(O)(O)C(O)(CCc1ccc(Cl)cc1)P(=O)(O)O`: 201 °C.
For the compound `O=C1SCC(O)=C1Cc1ccc(OCCc2ccccc2)cc1`, the melting point is 170 to 171 °C.
The result for `CC(=O)N1N=C(c2ccncc2)OC1(C)C` reads 117 to 118 °C; that for `Cc1ccc(C2CC(=O)c3ccccc3N2)cc1` (configuration not stated), 144 to 146 °C.
The result for `CS(=O)c1c(N)nc(N)nc1Cl` (configuration not stated) reads 126 to 128 °C; that for `CC1(C)C(=O)C(c2cc(F)cc(F)c2)=C1c1ccc(S(C)(=O)=O)cc1`, 113 to 114 °C; that for `CNC(=O)c1cccc2c(-c3ccccc3)c([N+](=O)[O-])oc12`, 167 to 169 °C.
The result for `Brc1ccccc1-c1c(Br)cccc1Br` reads 95 to 97 °C.
In the case of `Cc1cc(C(=O)NCO)ncc1C(c1c(F)ccc(F)c1F)S(=O)(=O)CCC(F)(F)F` (configuration not stated), the melting point lay within 146 to 148 °C.
The same measure for `CN1C(=O)C(c2c[nH]c3ccccc23)=C(c2cn(C)c3ccccc23)C1=O`: 168 to 171 °C; for `COC(=O)c1ccc(C2=NOC(c3cc(Cl)cc(Cl)c3)(C(F)(F)F)C2)c2ccccc12` (configuration not stated): 137 to 138 °C.
The result for `CCCN(C1CC(C)(C)Oc2ccc(OCc3ccccc3)cc21)S(=O)(=O)CC` (configuration not stated) reads 102 to 103 °C; that for `COC1CC2C3CCC4=CC(=O)CCC4(C)C3(F)C(O)CC2(C)C1(OC(C)=O)C(=O)CCl` (configuration not stated), 243 to 245 °C.
The same measure for `CC(C)(C)COc1ccc(NC(=O)c2cnn(CC(F)(F)F)c2)cc1C#N`: 159 to 160 °C; for `CC(C)OC(=O)Cc1nc(-c2ccc(Cl)cc2)oc1-c1ccco1`: 96 to 97 °C.
Consider `COc1ccc2cccc3c2c1C(CC(=O)O)CC3` (configuration not stated), for which the melting point is 147 °C.
The same measure for `NC(=NO)c1ncn2c1COC(=O)c1c(Cl)cccc1-2`: 252 to 254 °C; for `CCc1nc2c(C)cc(C)nc2n1Cc1ccc(C(=O)c2ccccc2)cc1`: 98 °C; for `CC(C)(C)OC(=O)N1CCN(C(=O)N2CCOCC2)CC1`: 171 to 173 °C.
The result for `CC(C)(C)OC(=O)N1C[C@@H]([C@H](O)CO)CC1=O` reads 92 to 94 °C; that for `CC(C)Cn1c(CON2C(=O)c3ccccc3C2=O)nc2c(N)nc3ccccc3c21`, 221 to 222 °C; that for `CCCc1ccc(S(=O)(=O)Nc2ccc(OC)nc2)cc1`, 93 to 94 °C.
The result for `O=[N+]([O-])c1ccc(CCn2cccn2)cc1` reads 92 to 93 °C; that for `COc1cc2cc(-c3ccccc3)sc2c(Cl)c1Cl`, 144 to 145 °C; that for `FC(F)(F)c1cccc(Sc2cc(Br)nc(Br)c2)c1`, 68 to 70 °C.
`O=C(O)Cc1c(-c2ccccc2)c2cc3c(cc2oc1=O)C(=O)OC3` returned a melting point of 226 to 227 °C.
The same measure for `COC(=O)Cc1nc(-c2ccc(OC)cc2)c(-c2ccc(OC)cc2)s1`: 79 to 81.5 °C; for `O=C1CCC(N2Cc3c(OCc4ccc5nc(CN6CCOCC6)cn5c4)cccc3C2=O)C(=O)N1` (configuration not stated): 278 to 280 °C; for `CC1=C(C(=O)OCCO)C(c2cccc([N+](=O)[O-])c2)C2=C(CCCS2(=O)=O)N1` (configuration not stated): 233 to 235 °C.
The same measure for `CN1CCN(S(=O)(=O)c2cc(NC(=O)c3cnn4c(C(F)F)cc(-c5ccc(C(F)(F)F)cc5)nc34)c(Cl)s2)CC1`: 293 °C.
The same measure for `CCCCCCCCc1ccc(C(O)CC(CO)(CO)NC(C)=O)cc1` (configuration not stated): 118 to 119 °C.
In the case of `Cn1ncc(/C=C/C(=O)Nc2ccc(Cn3ccnc3)cc2)c1-c1ccc(F)cc1`, the melting point was 213 to 214 °C.
`Cc1nc(N)c2c(=O)n(C)c(=O)n(C)c2n1`: the melting point came to 267 °C.
The result for `O=C1c2ccccc2C(=O)c2c(NCCN3CCOCC3)ccc(NCCN3CCOCC3)c21` reads 158 to 159 °C; that for `CC(N)C(=O)Nc1coc2cc(NS(C)(=O)=O)c(Oc3ccccc3)cc2c1=O` (configuration not stated), 111 to 113 °C.
The same measure for `COc1ccc(CCNC(=O)N(C)O)cc1OC`: 103 to 104 °C; for `O=C(O)[C@@H]1CCCN1S(=O)(=O)CCS`: 99 to 101 °C; for `COc1ccc(-c2cc(CN3CCN(C)CC3)c(=O)n(CC=Cc3ccc(Cl)cc3)n2)cc1F`: 124 to 126 °C.
The same measure for `Cc1ccccc1CC1CCN(C(=O)C(=O)Nc2ccc3c(c2)CC(=O)N3)CC1`: 211 to 213 °C; for `COc1ccc(CC(C)(C)CO)cc1OC`: 48.5 to 50 °C; for `CC(C)[C@H](O)[C@@H](CCCCOc1cc(F)ccc1F)n1nc[nH]c1=S` (racemic): 97 °C.
For the compound `COc1cccc(C=CC(=O)C2C(=O)CCC2=O)c1O`, the melting point fell in the range of 198 to 200 °C.
The same measure for `O=C1NC(=O)C(=Cc2ccc(-c3ccc(O)c(C45CC6CC(CC(C6)C4)C5)c3)cc2)S1`: 307 to 308 °C.
The result for `Cc1ccc(S(=O)(=O)OCc2c([N+](=O)[O-])cccc2[N+](=O)[O-])cc1` reads 98 to 99 °C; that for `Cc1cc2c(nc1C(O)c1cccnc1)CCCCC2` (configuration not stated), 124 to 126 °C; that for `COc1cc(Cc2cnc(N)nc2N)cc2cccnc12`, 285 to 287 °C.
In turn, `COC(=O)c1ccc2nc3cc(C)sc3c(=O)n2c1` gave a melting point of 215 to 216 °C.
Compound `COc1cc2c(cc1OCc1ccccc1)C1Cc3c(Cl)cc(OC)c(OCCOCCO)c3CN1CC2` (configuration not stated) gave a melting point of 122 °C.
The same measure for `COC(=O)c1cc(C)nn1-c1ncc(Cl)cc1Cl`: 97 to 98 °C; for `COc1c(C)cnc(CO)c1C`: 49 to 51 °C; for `CN(C(=O)c1nsc2ccc(-n3c(=O)cc(C(F)(F)F)n(C)c3=O)cc12)S(C)(=O)=O`: 120 to 122 °C.
The result for `CC(C)(CO)c1ccc(C(O)CCCN2CCC(=C3c4ccccc4CCc4ccccc43)CC2)cc1` (configuration not stated) reads 157 to 159 °C; that for `Cc1cccc(Nc2cc(-c3c(-c4cccc(C)c4)nc4cccnn34)ccn2)c1`, 195 to 196 °C.
The same measure for `CC1(C)CC2(CC(C)(C)N1c1nc(Cl)nc(N3CCOCC3)n1)OCCO2`: 154 to 156 °C; for `CCOC(=O)C1Cc2c(OC)cc(Cl)c(OC)c2CO1` (configuration not stated): 95 °C; for `c1ccc2nc(COc3cccc4cccnc34)ccc2c1`: 95 to 96 °C.
For `COc1ccc2c(c1)NC1(CCN(C)CC1)c1cccn1-2`, the melting point is 124 to 125 °C.
`CC(C)(Oc1ccc(C(=O)c2ccc(Cl)cc2)cc1)C(=O)NCC(=O)O` registered a melting point of 144 to 146 °C.
The result for `Cc1ccc(C(=O)N[C@H](C)C(N)=O)cc1-n1c(C)cc(OCc2ccccc2CNC(=O)Nc2cc(C(C)(C)C)nn2-c2ccc(O)c(Cl)c2)c(Cl)c1=O` reads 192 to 193 °C; that for `CCCc1ccc(OCc2ccc(OCc3nc(-c4ccccc4)oc3C)cc2)c(CC(=O)O)c1`, 116 to 117 °C; that for `O=[N+]([O-])c1ccc(Cl)c(C2SCCS2)c1`, 130 to 131 °C.

These data come from a melting point compilation (Tetko et al.; mined from patent text by program, amines drawn as free bases though some values may be those of a salt).
